{"source": "patent US20250066343A1", "about": "“NOVEL CANNAB[…] DERIVATIVE, PREPARATION METHOD THEREFOR, AND COMPOSITION COMPRISING SAME FOR IMPROVING COGNITIVE FUNCTION” (priority 2021, published 2025)", "format_in_all_cases": "biochemical", "key": {"[1]": {"target": "T1, Monoamine oxidase B (MAO-B) (Homo sapiens, UniProt P27338)", "T1 sequence (P27338 1-520)": "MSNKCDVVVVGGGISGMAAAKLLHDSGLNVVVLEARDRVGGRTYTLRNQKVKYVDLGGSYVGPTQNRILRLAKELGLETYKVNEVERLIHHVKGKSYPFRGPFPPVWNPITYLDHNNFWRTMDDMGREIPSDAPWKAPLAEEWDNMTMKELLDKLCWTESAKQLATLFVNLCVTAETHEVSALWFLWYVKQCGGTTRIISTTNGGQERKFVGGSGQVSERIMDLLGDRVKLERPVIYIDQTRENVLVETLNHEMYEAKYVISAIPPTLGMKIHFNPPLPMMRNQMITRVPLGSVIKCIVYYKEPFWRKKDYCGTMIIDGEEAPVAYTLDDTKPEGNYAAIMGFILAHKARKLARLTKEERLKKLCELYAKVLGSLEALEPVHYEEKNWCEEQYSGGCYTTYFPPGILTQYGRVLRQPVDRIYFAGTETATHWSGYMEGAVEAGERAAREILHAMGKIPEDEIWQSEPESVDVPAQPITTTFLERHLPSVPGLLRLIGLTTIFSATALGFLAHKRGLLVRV", "experiment": "Monoamine oxidase B inhibitory efficacy (kynuramine fluorescence assay)", "conditions": "compound 0-200 μM; enzyme 2 mU/mL; kynuramine substrate; N.D. = Not Detected", "method": "Samples were prepared by dilution with DMSO to give concentrations of 0, 2, 5, 10, 20, 50, 100, and 200 μM of the compound, and 5 μl was dispensed into a 96-well plate. 135 μl of potassium phosphate buffer (0.1 M, 7.4 pH) was dispensed into a 96-well plate. Monoamine oxidase B was prepared at 2 mU/mL, and 50 μl was added to the 96-well plate, mixed with the dispensed compound, and left for 20 minutes. The substrate, kynuramine solution, was prepared at 100 μM, then 10 μl was added to a 96-well plate and left for 10 min. The reaction was stopped by adding 75 μl of NaOH (2N). The enzyme activity was calculated by measuring the concentration of kynuramine degraded by the enzyme using a fluorometer under 310 nm (excitation)/380 nm (emission) conditions. For the fluorescence blank experiment, potassium phosphate buffer was added instead of monoamine oxidase B to correct the compound-induced fluorescence intensity values."}, "[2]": {"target": "Butyrylcholinesterase (BuChE) (Homo sapiens, UniProt P06276)", "sequence (P06276 29-602)": "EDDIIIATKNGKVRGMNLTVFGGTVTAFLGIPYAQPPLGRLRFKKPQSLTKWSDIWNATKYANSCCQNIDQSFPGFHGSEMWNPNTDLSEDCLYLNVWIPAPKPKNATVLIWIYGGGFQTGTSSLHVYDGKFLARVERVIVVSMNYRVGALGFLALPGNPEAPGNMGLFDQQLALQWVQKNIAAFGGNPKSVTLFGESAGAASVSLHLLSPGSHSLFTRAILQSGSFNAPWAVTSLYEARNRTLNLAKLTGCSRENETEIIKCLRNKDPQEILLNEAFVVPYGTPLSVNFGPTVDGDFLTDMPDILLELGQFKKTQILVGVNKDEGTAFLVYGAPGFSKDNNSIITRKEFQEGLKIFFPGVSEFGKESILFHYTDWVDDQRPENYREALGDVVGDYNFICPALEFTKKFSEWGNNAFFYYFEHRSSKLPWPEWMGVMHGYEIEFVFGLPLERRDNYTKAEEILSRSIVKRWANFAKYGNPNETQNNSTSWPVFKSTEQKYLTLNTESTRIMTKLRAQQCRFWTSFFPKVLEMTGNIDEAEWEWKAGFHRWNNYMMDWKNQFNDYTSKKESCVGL", "experiment": "Butyrylcholinesterase inhibitory efficacy (butyrylthiocholine/DTNB absorbance assay)", "conditions": "compound 0-200 μM; enzyme 50 mU/ml; N.D. = Not Detected", "method": "(§1) Acetylcholinesterase or butyrylcholinesterase was prepared at 50 mU/ml, 50 μl was added to a 96-well plate, mixed with the aliquoted compound, and left for 10 minutes. The substrate, acetylthiocoline 0.05 mg/mL or butyrylthiocoline 0.1 mg/ml, was prepared and 50 μl was added to a 96-well plate and left for 10 minutes. Dithionitrobenzoic acid (DTNB) was prepared at 0.3 mg/ml, then 50 μl was added to a 96-well plate and left for 10 minutes."}, "[3]": {"target": "Acetylcholinesterase (AChE) (Homo sapiens, UniProt P22303)", "sequence (P22303 32-614, species assumed)": "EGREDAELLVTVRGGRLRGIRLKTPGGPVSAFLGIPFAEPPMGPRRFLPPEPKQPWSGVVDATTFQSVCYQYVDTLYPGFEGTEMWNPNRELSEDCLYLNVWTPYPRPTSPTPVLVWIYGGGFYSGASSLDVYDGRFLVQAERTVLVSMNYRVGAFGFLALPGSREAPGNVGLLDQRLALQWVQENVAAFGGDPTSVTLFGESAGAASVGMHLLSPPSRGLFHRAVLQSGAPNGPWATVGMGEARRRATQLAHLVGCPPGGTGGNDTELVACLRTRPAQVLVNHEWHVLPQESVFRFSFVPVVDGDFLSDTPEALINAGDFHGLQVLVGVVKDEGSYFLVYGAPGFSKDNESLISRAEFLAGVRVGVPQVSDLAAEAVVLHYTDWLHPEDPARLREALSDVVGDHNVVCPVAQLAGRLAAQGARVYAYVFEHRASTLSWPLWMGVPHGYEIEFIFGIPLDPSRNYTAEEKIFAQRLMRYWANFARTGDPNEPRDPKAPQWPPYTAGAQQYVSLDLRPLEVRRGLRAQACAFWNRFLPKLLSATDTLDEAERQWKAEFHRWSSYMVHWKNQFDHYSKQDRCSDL", "experiment": "Acetylcholinesterase inhibitory efficacy (acetylthiocholine/DTNB absorbance assay)", "method": "as §1"}}}
{"smiles": "CCCCCc1cc2c(c(O)c1C(=O)NC1Cc3ccccc3C1)C=CC(C)(CCC=C(C)C)O2", "note": "(centres unmarked) [Compound 4aa, N-(2,3-dihydro-1H-inden-2-yl)-5-hydroxy-2-methyl-2-(4-methylpent-3-en-1-yl)-7-pentyl-2H-chromene-6-carboxamide]", "values": [{"measurement": "IC50", "setting": "[1]", "result": 100, "unit": "µM"}, {"measurement": "IC50", "setting": "[2]", "result": 164, "unit": "µM"}, {"measurement": "IC50", "setting": "[3]", "result": 2, "unit": "µM"}]}
{"smiles": "CCCCCc1cc2c(c(O)c1C(=O)N1CCN(CCO)CC1)C=CC(C)(CCC=C(C)C)O2", "note": "(centres unmarked) [Compound 4ae, (5-hydroxy-2-methyl-2-(4-methylpent-3-en-1-yl)-7-pentyl-2H-chromen-6-yl)(4-(2-hydroxyethyl)piperazin-1-yl)methanone]", "values": [{"measurement": "IC50", "setting": "[1]", "result": 55.8, "unit": "µM"}, {"measurement": "IC50", "setting": "[2]", "result": 72.3, "unit": "µM"}, {"measurement": "IC50", "setting": "[3]", "result": "< 0.5", "unit": "µM"}]}
{"smiles": "CCCCCc1cc2c(c(O)c1C(=O)Nc1ccccc1)C=CC(C)(CCC=C(C)C)O2", "note": "(centres unmarked) [Compound 4b, 5-hydroxy-2-methyl-2-(4-methylpent-3-en-1-yl)-7-pentyl-N-phenyl-2H-chromene-6-carboxamide]", "values": [{"measurement": "IC50", "setting": "[1]", "result": 176, "unit": "µM"}, {"measurement": "IC50", "setting": "[2]", "result": 94.6, "unit": "µM"}, {"measurement": "IC50", "setting": "[3]", "result": 0.4, "unit": "µM"}]}
{"smiles": "CCCCCc1cc2c(c(O)c1C(=O)NC1CCCC1)C=CC(C)(CCC=C(C)C)O2", "note": "(centres unmarked) [Compound 4e, N-cyclopentyl-5-hydroxy-2-methyl-2-(4-methylpent-3-en-1-yl)-7-pentyl-2H-chromene-6-carboxamide]", "values": [{"measurement": "IC50", "setting": "[2]", "result": 0.4, "unit": "µM"}, {"measurement": "IC50", "setting": "[3]", "result": 0.4, "unit": "µM"}]}
{"smiles": "CCCCCc1cc2c(c(O)c1C(=O)NC1CCN(C)CC1)C=CC(C)(CCC=C(C)C)O2", "note": "(centres unmarked) [Compound 4q, 5-hydroxy-2-methyl-2-(4-methylpent-3-en-1-yl)-N-(1-methylpiperidin-4-yl)-7-pentyl-2H-chromene-6-carboxamide]", "values": [{"measurement": "IC50", "setting": "[1]", "result": 131, "unit": "µM"}, {"measurement": "IC50", "setting": "[2]", "result": 6.2, "unit": "µM"}]}
{"smiles": "CCCCCc1cc2c(c(O)c1C(=O)Nc1ccc(-c3ccc(F)cc3)cc1)C=CC(C)(CCC=C(C)C)O2", "note": "(centres unmarked) [Compound 4w, N-(4′-fluoro-[1,1′-biphenyl]-4-yl)-5-hydroxy-2-methyl-2-(4-methylpent-3-en-1-yl)-7-pentyl-2H-chromene-6-carboxamide]", "values": [{"measurement": "IC50", "setting": "[1]", "result": 7.1, "unit": "µM"}, {"measurement": "IC50", "setting": "[3]", "result": 13.7, "unit": "µM"}]}
{"smiles": "CCCCCc1cc2c(c(O)c1C(=O)NCCc1ccc(O)cc1)C=CC(C)(CCC=C(C)C)O2", "note": "(centres unmarked) [Compound 4x, 5-hydroxy-N-(4-hydroxyphenethyl)-2-methyl-2-(4-methylpent-3-en-1-yl)-7-pentyl-2H-chromene-6-carboxamide]", "values": [{"measurement": "IC50", "setting": "[2]", "result": 2.6, "unit": "µM"}, {"measurement": "IC50", "setting": "[3]", "result": 0.8, "unit": "µM"}]}
{"smiles": "CCCCCc1cc2c(c(O)c1C(=O)NN1CCCCC1)C=CC(C)(CCC=C(C)C)O2", "note": "(centres unmarked) [Compound 4z, 5-hydroxy-2-methyl-2-(4-methylpent-3-en-1-yl)-7-pentyl-N-(piperidin-1-yl)-2H-chromene-6-carboxamide]", "values": [{"measurement": "IC50", "setting": "[1]", "result": 156, "unit": "µM"}, {"measurement": "IC50", "setting": "[2]", "result": 1.3, "unit": "µM"}, {"measurement": "IC50", "setting": "[3]", "result": 29, "unit": "µM"}]}
